Read-outs that look alike come from different tables or passages of the source. Some results are limits rather than exact numbers.

This is an account of results in patent publication EP0548798A1, “Antiviral agent” (SANWA KAGAKU KENKYUSHO CO., LTD., priority 1991, dated 1993).

The subject of series [1] is herpes simplex virus type 1 (Miyama strain). The series can be described thus: Antiviral activity against HSV-1 in vitro, inhibition of virus-induced CPE in GMK cells (Test Example 2). It is filed as cell-based, HSV-1 (Miyama strain). The following applies: 0.5% fetal bovine serum. The procedure:
(§1) Confluent GMK cells (derived from green monkey kidney) in 96-well plates were infected with HSV-1 (Miyama strain) in the presence of various concentrations of test compounds. After incubation, virus-induced cytopathic effect (CPE), inhibitory effect of CPE by the test compound and cytotoxicity were microscopically observed. The virus titer (TCID₅₀) was determined from CPE of virus infected culture. Ancivirus effects of test compounds were calculated from TCID₅₀ values of test compound treated and control cultures and represented by ΔTCID₅₀(log₁₀). Test compounds were dissolved in MEM medium, ethanol or DMSO to 10 mg/ml, and diluted with MEM medium supplemented with 0.5% fetal bovine serum.

Series [2] has as its system GMK cells. The series is described as follows: Cytotoxicity observed microscopically in GMK cells (Test Example 2). It is filed as cell-based, green monkey. On the set-up: key: -: no cytotoxicity; ±: slight cytotoxicity; +: cytotoxicity with observable antiviral effect. The following applies: in parentheses. The protocol:
as §1
In Table 4, parentheses indicate the cytotoxicity of these compounds. (-), (±) and (+) indicate no cytotoxicity, slight cytotoxicity and cytotoxicity with observable antiviral effect, respectively.

In series [3] the test system is herpes simplex virus type 1 (Miyama strain). The series is described as follows: Antiviral activity against HSV-1 in vitro, inhibition of virus-induced CPE in GMK cells (Test Example 1). It is filed as cell-based, HSV-1 (Miyama strain). The protocol:
(§2) Confluent GMK cells (derived from green monkey kidney) in 96-well plates were infected with HSV-1 (Miyama strain) in the presence of various concentrations of test compounds. […] The virus titer (TCID₅₀) was determined from CPE of virus infected culture. Antivirus effects of test compounds were calculated from TCID₅₀ values of test compound treated and control cultures and represented by ΔTCID₅₀(log₁₀). Test compounds were dissolved in MEM medium, ethanol or DMSO to 10 mg/ml, and diluted with MEM medium supplemented with 1% fetal bovineserum.

In series [4] the test system is GMK cells. The series is described as follows: Cytotoxicity observed microscopically in GMK cells (Test Example 1). It is filed as cell-based, green monkey. The protocol: as §2
In Table 1, parentheses indicate the cytotoxicity of these compounds. (-) and (±) indicate no cytotoxicity and slight cytotoxicity, respectively.

Series [5] concerns HSV-1 (Miyama strain). The series is described as follows: Anti HSV-1 activity in vivo, intraperitoneally infected mice. On the set-up: species or system Male BALB/c mice. The conditions noted are these: 322 PFU (10LD₅₀) HSV-1. The protocol: Male BALB/c mice (5 weeks of age) were intraperitoneally infected with 322 PFU (plaque forming unit, 10LD₅₀) of HSV-1 (Miyama strain). Twenty one days later, survival ratio and mean survival days were evaluated. Test compounds were dispersed in 5% arabic gum/physiological saline, and intraperitoneally administered at 10 mg and 20 mg/kg. Treatment began just after virus inoculation and continued for 5 days.

Where [6] appears, read: Human alphaherpesvirus 1, 10 µg/ml, GMK cells, 1% fetal bovine serum, read-out: Antiviral Activity (ΔTCID₅₀(log₁₀)).
Where [7] appears, read: 10 µg/ml, GMK cells, in parentheses.
The mark [8] stands for this setting: 10 µg/ml, GMK cells, 1% fetal bovine serum.
Where [9] appears, read: 10 mg/kg intraperitoneally for 5 days.
[10] abbreviates: 20 mg/kg intraperitoneally for 5 days.

“2-[4-(2-Trifluoromethylphenyl)-1-piperazinyl]-7-(2-deoxy-α-and β-D-ribofuranosyl)hypoxanthine and 2-[4-(2-Trifluromethylphenyl)-1-piperazinyl]-9-(2-deoxy-α- and β-D-ribofuranosyl)hypoxanthine [Compound of Example 21]”: the “Antiviral Activity (ΔTCID₅₀(log₁₀))” value in series [1] (10 µg/ml) is given as 1.00 log₁₀. In series [2] (10 µg/ml), the cytotoxicity entry is “-”.
`NS(=O)(=O)c1ccc(N2CCN(c3ccccc3Cl)CC2)cc1` [Compound of Example 11, 1-(4-Aminosulfonylphenyl)-4-(2-chlorophenyl)piperazine]: the log reduction at 10 µg/mL in series [3] (setting [6]) came to 1.5. In series [4] (setting [7]), the cytotoxicity entry is given as “-”.
The matching figures for `CS(=O)(=O)N1CCN(c2ccccc2Cl)CC1` [Compound of Example 6, 1-(2-Chlorophenyl)-4-methylsulfonylpiperazine]: 0.17 and “-”.
Turning to `Cc1cc(O)c2c(=O)c(C)c(-c3ccc(OC(=O)CN4CCN(c5ccccc5C(F)(F)F)CC4)cc3)oc2c1` [Compound of Example 24, 2-[4-(4-(2-Trifluoromethylphenyl)-1-piperazinylacetoxy)phenyl]-5-hydroxy-3,7-dimethyl-4H-1-benzopyran-4-one], in series [1] (10 µg/ml), the “Antiviral Activity (ΔTCID₅₀(log₁₀))” value was 0.33 log₁₀. Moreover, the cytotoxicity result in series [2] (10 µg/ml) is recorded as “-”.
For `CC(=O)N1CCN(c2ccccc2Cl)CC1` [Compound of Example 13, 1-Acetyl-4-(2-chlorophenyl)piperazine], the log reduction at 10 µg/mL in series [3] (setting [6]) is 0. In addition, the cytotoxicity entry in series [4] (setting [7]) is “-”.
Consider `CC[C@@]12C=C(C(=O)NCCN3CCN(c4ccccc4OC)CC3)n3c4c(c5ccccc53)CCN(CCC1)[C@H]42` [Compound of Example 25, N-[4-(2-Methoxyphenyl)piperazine-1-yl]ethyl-(3α,16α)-eburunamenine-14-caboxamide], for which the “Antiviral Activity (ΔTCID₅₀(log₁₀))” value in series [1] (5 µg/ml) came to 0.67 log₁₀; in series [1] (10 µg/ml) it was 2.27 log₁₀. Also, the cytotoxicity entry in series [2] (5 µg/ml) and in series [2] (10 µg/ml) was “-” in each case.
For the molecule `CCN1CCN(c2ccccc2Cl)CC1` [Compound of Example 12, 1-(2-Chlorophenyl)-4-ethylpiperazine], the log reduction at 10 µg/mL in series [3] (Human alphaherpesvirus 1, GMK, read-out: Antiviral Activity (ΔTCID₅₀(log₁₀))) came to 0.33. Also, the cytotoxicity entry in series [4] (setting [7]) is on record as “-”.
For the molecule `O=C(CC12CCCN1CCC2)N1CCN(c2ccccc2Cl)CC1` [Compound of Example 4, 1-(1-Azabicyclo[3.3.0]octan-5-yl)acetyl-4-(2-chlorophenyl)piperazine], the “Antiviral Activity (ΔTCID₅₀(log₁₀))” value in series [3] (setting [8]) is on record as 0.66 log₁₀.
On to `CC(=O)Oc1ccccc1C(=O)N1CCN(c2ccccc2Cl)CC1` [Compound of Example 2, 1-(2-Acetoxybenzoyl)-4-(2-chlorophenyl)piperazine], for which the log reduction at 10 µg/mL in series [3] (setting [6]) was 0.5. The cytotoxicity entry in series [4] (setting [7]) is “-”.
With `CCn1cc(C(=O)O)c(=O)c2cc(F)c(N3CCN(c4ccccc4Cl)CC3)cc21` [Compound of Example 5, 7-[4-(2-Chlorophenyl)-1-piperazinyl]-1-ethyl-6-fluoro-1,4-dihydro-4-oxoquinoline-3-carboxylic acid], the “Mean Survival Days” value in series [5] (setting [9]) turned out to be 16.8 ± 1.6 days; in series [5] (setting [10]), 18.7 ± 1.2 days. In addition, the “Survival Ratio at 21 days (%)” value in series [5] (setting [9]) came out at 40%; in series [5] (setting [10]) it was 70%. Besides, the log reduction at 5 µg/mL in series [3] (Human alphaherpesvirus 1, 5 µg/ml, GMK cells, 1% fetal bovine serum, read-out: Antiviral Activity (ΔTCID₅₀(log₁₀))) is more than 2.83. Also, in series [3] (setting [6]), the log reduction at 10 µg/mL was more than 2.83. The cytotoxicity result in series [4] (5 µg/ml, GMK cells, in parentheses) is “-”; in series [4] (setting [7]), “±”.
Turning to `CCCCCCCCCCCCCCCCCC(=O)N1CCN(c2ccccc2Cl)CC1` [Compound of Example 7, 1-(2-Chlorophenyl)-4-octadecanoylpiperazine], the log reduction at 10 µg/mL in series [3] (setting [6]) came out at 0.17. Further, the cytotoxicity result in series [4] (setting [7]) is “-”.
Turning to `CC1(C)[C@@H](O)CC[C@]2(C)[C@H]3CC=C4[C@@H]5C[C@@](C)(C(=O)N6CCN(c7ccccc7Cl)CC6)CC[C@]5(C)CC[C@@]4(C)[C@]3(C)CC[C@@H]12` [Compound of Example 15, 1-(3β-Hydroxy-18β-olean-12-en-30-oyl)-4-(2-chlorophenyl)piperazine], the “Antiviral Activity (ΔTCID₅₀(log₁₀))” value in series [3] (setting [8]) was more than 2.00 log₁₀.
Take `C[C@H](CCC(=O)N1CCN(c2ccccc2Cl)CC1)[C@H]1CC[C@H]2[C@@H]3CC[C@@H]4CCCC[C@]4(C)[C@H]3CC[C@]12C` [Compound of Example 10, 1-(2-Chlorophenyl)-4-(5β-cholan-24-oyl)piperazine]: the log reduction at 10 µg/mL in series [3] (setting [6]) is 0.17. The cytotoxicity entry in series [4] (green monkey, 10 µg/ml) was “-”.
As for `O=C(CN1CCCC1=O)N1CCN(c2ccccc2Cl)CC1` [Compound of Example 1, 1-(2-Chlorophenyl)-4-(2-pyrrolidon-1-yl)acetylpiperazine], in series [3] (setting [6]), the log reduction at 10 µg/mL was determined as 0.17. Also, in series [4] (setting [7]), the cytotoxicity entry was “-”.
With `O=c1[nH]c(N2CCN(c3ccccc3C(F)(F)F)CC2)nc2nc[nH]c12` [Compound of Example 20, 2-[4-(2-Trifluoromethylphenyl)-1-piperazinyl]hypoxanthine], the “Antiviral Activity (ΔTCID₅₀(log₁₀))” value in series [1] (5 µg/ml) is reported as 1.66 log₁₀; in series [1] (10 µg/ml) it was more than 2.83 log₁₀. Besides, the cytotoxicity result in series [2] (5 µg/ml) is “-”; in series [2] (10 µg/ml) it was “±”.
On to `CCCCC/C=C\C/C=C\CCCCCCCC(=O)N1CCN(c2ccccc2C(F)(F)F)CC1` [Compound of Example 17, 1-(2-Trifluoromethylphenyl)-4-[(Z,Z)-9,12-octadecadienoyl]piperazine], for which the “Antiviral Activity (ΔTCID₅₀(log₁₀))” value in series [1] (10 µg/ml) stood at 1.56 log₁₀. The cytotoxicity entry in series [2] (10 µg/ml) is recorded as “-”.
`O=C(c1ccccc1O)N1CCN(c2ccccc2Cl)CC1` [Compound of Example 3, 1-(2-Chlorophenyl)-4-(2-hydroxybenzoyl)piperazine]: the log reduction at 10 µg/mL in series [3] (setting [6]) was 0.83. For the same molecule, in series [4] (setting [7]), the cytotoxicity entry is reported as “-”.
As to `COc1ccc2[nH]c(C(=O)N3CCN(c4ccccc4C(F)(F)F)CC3)cc2c1` [Compound of Example 22, 1-(5-Methoxyindolyl-2-carbonyl)-4-(2-trifluoromethyl)piperazine], the “Antiviral Activity (ΔTCID₅₀(log₁₀))” value in series [1] (10 µg/ml) is reported as 0.64 log₁₀. Besides, the cytotoxicity result in series [2] (10 µg/ml) is on record as “-”.
In the case of `CCn1cc(C(=O)O)c(=O)c2cc(F)c(N3CCN(c4ccccc4C(F)(F)F)CC3)cc21` [Compound of Example 23, 1-Ethyl-6-fluoro-7-[4-(2-trifluoromethylphenyl)-1-piperazinyl]-1,4-dihydro-4-oxoquinoline-3-carboxylic acid], the “Antiviral Activity (ΔTCID₅₀(log₁₀))” value in series [1] (5 µg/ml) and in series [1] (10 µg/ml) was more than 3.17 log₁₀ each time. The cytotoxicity result in series [2] (5 µg/ml) is recorded as “±”; in series [2] (10 µg/ml), “+”.
Turning to `CC1(C)[C@@H](O)CC[C@]2(C)[C@H]3CC=C4[C@@H]5C[C@@](C)(C(=O)N6CCN(c7ccccc7C(F)(F)F)CC6)CC[C@]5(C)CC[C@@]4(C)[C@]3(C)CC[C@@H]12` [Compound of Example 18, 4-(2-Trifluoromethylphenyl)-1-(3β-hydroxy-18β-olean-12-en-30-oyl)piperazine], in series [1] (10 µg/ml), the “Antiviral Activity (ΔTCID₅₀(log₁₀))” value was found to be 1.67 log₁₀. Moreover, the cytotoxicity entry in series [2] (10 µg/ml) is reported as “-”.
With `CC[C@@]12C=C(C(=O)NCCN3CCN(c4ccccc4Cl)CC3)n3c4c(c5ccccc53)CCN(CCC1)[C@H]42` [Compound of Example 26, N-[4-(2-Chlorophenyl)piperazine-1-yl]ethyl-(3α,16α)-eburunamenine-14-caboxamide], the figures for the “Antiviral Activity (ΔTCID₅₀(log₁₀))” value in series [1] (5 µg/ml) and in series [1] (10 µg/ml) were 2.00 log₁₀ and more than 3.17 log₁₀, respectively. In addition, the cytotoxicity entry is “-” in series [2] (5 µg/ml) and “+” in series [2] (10 µg/ml).
